Experimental data: US20080213248A1, “Methods and Systems for Treating Asthma and Other Respiratory Diseases” (UNIVERSITY OF FLORIDA RESEARCH FOUNDATION, INC., priority 2004, published 2008)
Each block holds one compound with its values, some of them ahead of it.

Key:
TRPM8 receptors [1] = details: previous in vitro studies; read-out: antagonistic potencies (IC50) for TRPM8 receptors; cited from earlier work
[2] = test system: vagus ganglion neurons (VGNs); experiment: Ca2+ imaging (Fluo-3) of acutely dissociated vagus ganglion neurons; assay type: cell-based, rat
Description: In one embodiment, retrograde labeling of vagus ganglions or bronchopulmonary tissues is performed on a murine or rat model. […] Instillation of the nerve tracing dye in the lower part of mice trachea was performed and, after 7 days, the mice (or rats) were sacrificed and the vagus ganglions were harvested, dissociated, and plated in dishes. Calcium-imaging approach was then used to identify bronchopulmonary vagus afferent neuron response to cold and menthol. […] All the data were represented as mean ±SEM. Paired-t tests were used for statistical comparison, and significance was considered at the p<0.05. To perform calcium imaging, VGNs were incubated with 2 μM Fluo3-AM in 20% pluronic acid (Molecular Probes, Eugene, Oreg.) for 30 min at 37° C. to load Ca^2+ indicator. The cells were then perfused with normal bath solution flowing at 1 ml/min in a 0.5 ml chamber. The normal bath solution contained (in mM): 150 NaCl, 5 KCl, 2 MgCl2, 2 CaCl2, 10 glucose, 10 HEPES, pH 7.2, osmolarity adjusted to 320 mOsm with sucrose. Fluo-3 fluorescence in the cells was detected using a peltier-cooled charge-coupled device (CCD) camera (PentaMAX-III System, Roper Scientific, Trenton, N.J.) under a fluorescent microscope (10× objective). Excitation was at 450 nm and emission at 550 nm, achieved by a fluorescence filter sets. Images were taken at one frame per second, and digitized using MetaFluor software (Universal Imaging Corporation). Unless otherwise indicated, all experiments were carried out at an ambient temperature of 26° C. Effects of cold on intracellular Ca^2+ levels were tested by application of a cold bath solution, which yield temperature drop from 26° C. to 19° C. within 1 min in the recording chamber. […] In a related embodiment, Adult Sprague-Dawley rats (200 to 300 g, n=48) were used according to the Institutional Animal Care and Use Committee guideline of the University of Florida. The rats were continuously anesthetized with isoflurane using an anaesthetizing machine. To retrograde label the vagus ganglion neurons that innervate low airway tissues, a 20 μl-DiI was instilled into the caudal region of the trachea in living adult rats (see FIG. 1a, which illustrates the instillation of DiI into the lower segment of rat trachea to retrograde label airway VGNs). The animals were positioned supine during dye instillation and kept the same position for 30 min before recovery from anesthesia. […] The neurons were plated on glass coverslips previously covered with PDL and used within 4 hours after plating.

[3] = test system: vagus ganglion neurons (VGNs); experiment: Whole-cell patch-clamp recordings (voltage-clamp and current-clamp) on menthol-responsive VGNs; assay type: cell-based, rat
rats = experiment: Inhalation of menthol, respiratory reaction; assay type: in vivo, rat
TRPM8 receptors [4] = molecular target: T1, TRPM8 receptors (Rattus norvegicus, UniProt Q8R455); experiment: TRPM8 expression in cultured sensory neurons in the presence of NGF; assay type: cell-based; details: NGF present
T1 construct: increase in number of TRPM8-expressing neurons in cell culture when in the presence of nerve growth factor (NGF); endogenous in cells; host or cells: cultured sensory neurons
Text: Inflammation in lung tissues often can result in the increases the levels of nerve growth factor (NGF). […] Upregulation of TRPM8 receptors on these nerves can sensitize their responses to cold stimulation. FIGS. 8a and 8b illustrate the numbers of TRPM8 expression neurons and the responsiveness of these neurons to the TRPM8 ligand menthol. Specifically, FIG. 8a is a graphical illustration of an increase in number of TRPM8-expressing neurons in cell culture when in the presence of nerve growth factor (NGF). […] is a graphical illustration of the response of TRPM8-expressing neurons to the TRPM8 receptor agonist menthol when cultured in the presence or absence of NGF. The one day cultures were used in the absence of NGF.
Inflammatory reactions in bronchopulmonary tissues of asthma animals are known to result in an increased level of nerve growth factor (NGF). […] An up-regulation of TRPM8 receptors in inflammatory bronchopulmonary tissues will make animals more susceptible to cold.

T1 sequence (Q8R455 whole entry): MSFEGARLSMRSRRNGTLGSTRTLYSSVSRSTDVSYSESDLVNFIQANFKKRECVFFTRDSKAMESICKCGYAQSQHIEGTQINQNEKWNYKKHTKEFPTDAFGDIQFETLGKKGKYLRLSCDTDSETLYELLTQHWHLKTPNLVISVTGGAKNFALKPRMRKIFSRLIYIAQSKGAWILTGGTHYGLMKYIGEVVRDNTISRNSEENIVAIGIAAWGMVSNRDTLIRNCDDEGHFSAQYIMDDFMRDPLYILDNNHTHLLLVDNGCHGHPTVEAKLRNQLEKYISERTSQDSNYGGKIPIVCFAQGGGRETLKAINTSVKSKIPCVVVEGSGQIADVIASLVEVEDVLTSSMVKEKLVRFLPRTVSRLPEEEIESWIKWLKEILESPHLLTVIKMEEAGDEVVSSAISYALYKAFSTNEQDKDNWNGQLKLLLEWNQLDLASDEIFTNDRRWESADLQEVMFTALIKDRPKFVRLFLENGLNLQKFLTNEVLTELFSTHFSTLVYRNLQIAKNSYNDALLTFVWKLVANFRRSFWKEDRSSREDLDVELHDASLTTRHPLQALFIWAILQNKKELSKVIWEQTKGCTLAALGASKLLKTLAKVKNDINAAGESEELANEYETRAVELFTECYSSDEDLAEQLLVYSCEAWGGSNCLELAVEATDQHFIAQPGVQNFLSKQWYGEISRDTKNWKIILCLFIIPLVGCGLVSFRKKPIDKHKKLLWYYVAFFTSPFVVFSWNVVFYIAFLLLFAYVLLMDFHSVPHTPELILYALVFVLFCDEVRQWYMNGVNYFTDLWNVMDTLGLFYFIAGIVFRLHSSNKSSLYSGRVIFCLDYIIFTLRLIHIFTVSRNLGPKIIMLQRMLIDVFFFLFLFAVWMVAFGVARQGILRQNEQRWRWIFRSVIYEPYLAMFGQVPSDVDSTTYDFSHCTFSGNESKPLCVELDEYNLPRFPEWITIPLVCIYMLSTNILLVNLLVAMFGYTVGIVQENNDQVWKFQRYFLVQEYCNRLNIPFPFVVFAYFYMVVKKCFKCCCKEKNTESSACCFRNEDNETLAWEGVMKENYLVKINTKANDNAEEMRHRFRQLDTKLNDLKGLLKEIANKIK

Compound: NCCOB(c1ccccc1)c1ccccc1 [2-APB, 2-aminoethoxydiphenyl borate]
- IC50 (TRPM8 receptors [1]): ~50 µM

Compound: Nc1ncnc2c1ncn2[C@@H]1O[C@H](COP(=O)(O)OP(=O)(O)OP(=O)(O)O)[C@@H](O)[C@H]1O [ATP]
- ATP sensitivity of menthol-responsive VGNs ([2]; Ca2+ imaging, menthol and ATP responses): almost all menthol-responsive VGNs were ATP-sensitive

Compound: CC(C)(C)c1ccc(NC(=O)N2CCN(c3ncccc3Cl)CC2)cc1 [BCTC, N-(4-Tertiarybutylphenyl)-4-(3-cholorphyridin-2-yl)tetrahydropyrazine-1(2H)-carbox-amide]
- IC50 (TRPM8 receptors [1]): 0.8 ± 1 µM

Compound: Oc1cc2c(cc1O)CN(C(=S)NCCc1ccc(Cl)cc1)CCC2 [capsazepine]
- IC50 (TRPM8 receptors [1]): 18 ± 1.1 µM

- respiratory reaction on inhalation (rats; menthol 1 μM): respiratory reaction is not obvious
- respiratory reaction on inhalation (rats; menthol 1 mM, n=3): results in a breathing difficulty
Compound: CC1CCC(C(C)C)C(O)C1 (stereo not shown) [menthol]
- DiI-labeled cells both menthol- and cold-responsive ([2]; 27 of 170 DiI-labeled cells, menthol 100 μM, cold 26 to 19° C.): 16%
- DiI-labeled cells showing response to menthol ([2]; menthol 100 μM, 20 s, 28 of 170 DiI-labeled cells): 17%
- VGNs with increases of intracellular Ca2+ ([2]; menthol 100 μM, 20 s, 116/1638 cells, DiI-labeled and non-labeled, response ΔF/F0 >0.1): 7%
- membrane potential after depolarization by menthol ([3]; menthol 100 μM, 20 s, current-clamp, from resting potential 60±0.6 mV, n=4): 38±1.5 mV
- menthol-evoked inward current ([3]; menthol 100 μM, 20 s, voltage-clamp, held at −70 mV, n=7): 191±29 pA
- action potential firing ([3]; menthol 100 μM, current-clamp): action potentials elicited
- action potential firing ([3]; menthol 100 μM, current-clamp, listed as Menthol): caused action potential firing
- reversal potential of menthol-evoked currents ([3]; voltage ramp, strong outward rectification, n=4): −2±0.3 mV

Compound: CC(C)(C)c1ccc(NC(=S)N2CCN(c3ncccc3Cl)CC2)cc1 [thio-BCTC]
- IC50 (TRPM8 receptors [1]): 3.5 ± 1.1 µM

- TRPM8 receptor expression (TRPM8 receptors [4]): up-regulated
Compound: NGF: nerve growth factor
